# Reference: PMC7550323 (Clinical Pharmacokinetics, 2020)
# “And” between values parts separate entries of the source, which are not always exact repeats. Equal entries are not always repeated. Where two headings read alike, the source gives them in different places.
# Legend:
# [1] = multiple dosing QD (Day 15)
# [2] = test system: MV4-11 AML cells; conditions: mice xenografted with MV4-11 AML cells; cited from earlier work
# [3] = assay type: in vivo, human
# [4] = Effect of food study in healthy subjects; assay type: in vivo, human; conditions: single 40 mg dose
# [5] = test system: FLT3 receptors expressing the F691L gatekeeper mutation; conditions: cited from earlier work
# [6] = CYP3A4 drug-drug interaction study in healthy subjects; assay type: in vivo, human; conditions: for AUCinf, GLSM ratio / AUClast, GLSM ratio / Cmax, GLSM ratio: 100 indicates no change
# [7] = Population PK analysis; assay type: in vivo, human
# [8] = test system: FLT3; conditions: cited from earlier work
# [9] = assay type: in vivo, human; conditions: R/R AML; achievable at QD doses of 80 mg or greater
# [10] = test system: FLT3; conditions: doses of ≥ 80 mg/day; cited from earlier work
# [11] = Hepatic impairment study, single-dose gilteritinib pharmacokinetics; assay type: in vivo, human; conditions: for AUC480, GLSM, Unbound / AUCinf, GLSM, Unbound / Cmax, GLSM, Unbound: single 10 mg dose, fasted, N = 8
# [12] = metabolite profiling after 14C-gilteritinib
# [13] = single oral dose of 14C-gilteritinib
# [14] = fluconazole + gilteritinib/gilteritinib alone
# [15] = itraconazole + gilteritinib/gilteritinib alone
# [16] = rifampicin + gilteritinib/gilteritinib alone
smiles,measurement,setting,value
"CCc1nc(C(N)=O)c(Nc2ccc(N3CCC(N4CCN(C)CC4)CC3)c(OC)c2)nc1NC1CCOCC1 [gilteritinib, Gilteritinib]","Ctrough, Median (range)","[1]; 80 mg, n = 20",110 (78.6–339) ng/mL
same,"Rac (accumulation ratio), Mean (SD)","[1]; 120 mg, n = 3",3.3 (1.2)
same,"Rac (accumulation ratio), Median (range)","[1]; 120 mg, n = 3",3.2 (2.2–4.4)
same,"Ctrough, Mean (SD)","[1]; 120 mg, n = 61",367 (253) ng/mL
same,"Ctrough, Median (range)","[1]; 120 mg, n = 61",292 (77.1–1173) ng/mL
same,"Rac (accumulation ratio), Mean (SD)","[1]; 200 mg, n = 2",9.0 (3.7)
same,"Rac (accumulation ratio), Median (range)","[1]; 200 mg, n = 2",9.0 (6.4–11.7)
same,"Ctrough, Mean (SD)","[1]; 200 mg, n = 79",816 (557) ng/mL
same,"Ctrough, Median (range)","[1]; 200 mg, n = 79",668 (90.5–2925) ng/mL
same,"Rac (accumulation ratio), Mean (SD)","[1]; 300 mg, n = 3",9.1 (3.3)
same,"Rac (accumulation ratio), Median (range)","[1]; 300 mg, n = 3",10.1 (5.4–11.7)
same,"Ctrough, Mean (SD)","[1]; 300 mg, n = 15",1242 (723) ng/mL
same,"Ctrough, Median (range)","[1]; 300 mg, n = 15",1085 (470–2391) ng/mL
same,"Ctrough, Mean (SD)","[1]; 450 mg, n = 1",1170 ng/mL
same,effect on tumor growth,[2],inhibited tumor growth and induced tumor regression
same,average total blood-to-plasma ratios of total 14C-radioactivity,[3]; after [14C]-gilteritinib 120 mg single dose at steady state,0.8514–1.361
same,"radioactive peak in feces, accounting for",[3]; [12],11.7–23.8%
same,"radioactive peak in urine, accounting for",[3]; [12],6.3–15.8%
same,total administered dose recovered in feces,[3]; [13],64.5%
same,total dose recovered in urine,[3]; [13],16.4%
same,total radioactive dose recovered,[3]; [13],80.9%
same,"AUC72, GMR (fed/fasted)",[4],91.0%
same,"AUCinf, GMR (fed/fasted)",[4],93.8%
same,"AUClast, GMR (fed/fasted)",[4],94.6%
same,"Cmax, GMR (fed/fasted)",[4],74.0%
same,activity against FLT3 receptors expressing the F691L gatekeeper mutation,[5],weak activity
same,increase in systemic exposure of gilteritinib,[6]; coadministration of itraconazole (strong CYP3A4 inhibitor),~ 2.2 fold and 2.2 fold
same,increase in gilteritinib systemic exposure,[6]; coadministration with fluconazole,~ 1.43 fold
same,decrease in gilteritinib systemic exposure,[6]; concomitant administration of rifampicin,~ 70%
same,"AUCinf, GLSM ratio",[6]; [14],143.5%
same,"AUClast, GLSM ratio",[6]; [14],144.0%
same,"Cmax, GLSM ratio",[6]; [14],115.7%
same,"AUCinf, GLSM ratio",[6]; [15],221.4%
same,"AUClast, GLSM ratio",[6]; [15],213.5%
same,"Cmax, GLSM ratio",[6]; [15],119.8%
same,"AUCinf, GLSM ratio",[6]; [16],28.5%
same,"AUClast, GLSM ratio",[6]; [16],29.2%
same,"Cmax, GLSM ratio",[6]; [16],73.4%
same,half-life,"[7]; human, plasma, oral",113 h
same,volume of distribution,[7]; in vivo,large volume of distribution
same,inhibition of FLT3 receptors with ITD and D835 mutations,[8],highly specific potent inhibition
same,selectivity for FLT3,[8]; preclinical evaluations,highly selective for FLT3
same,steady-state Ctrough at which composite complete response occurred more commonly,[9],≥ 100 ng/mL
same,maximum FLT3 inhibition,[10],> 90%
same,"AUC480, GMR vs normal hepatic function, Total",[11]; mild hepatic impairment,78.13%
same,"AUC480, GMR vs normal hepatic function, Unbound",[11]; mild hepatic impairment,87.59%
same,"AUCinf, GMR vs normal hepatic function, Total",[11]; mild hepatic impairment,78.88%
same,"AUCinf, GMR vs normal hepatic function, Unbound",[11]; mild hepatic impairment,88.42%
same,"Cmax, GMR vs normal hepatic function, Total",[11]; mild hepatic impairment,106.59%
same,"Cmax, GMR vs normal hepatic function, Unbound",[11]; mild hepatic impairment,119.49%
same,"AUC480, GMR vs normal hepatic function, Total",[11]; moderate hepatic impairment,60.55%
same,"AUC480, GMR vs normal hepatic function, Unbound",[11]; moderate hepatic impairment,87.21%
same,"AUCinf, GMR vs normal hepatic function, Total",[11]; moderate hepatic impairment,61.43%
same,"AUCinf, GMR vs normal hepatic function, Unbound",[11]; moderate hepatic impairment,88.48%
same,"Cmax, GMR vs normal hepatic function, Total",[11]; moderate hepatic impairment,81.73%
same,"Cmax, GMR vs normal hepatic function, Unbound",[11]; moderate hepatic impairment,117.72%
same,"AUC480, GLSM, Unbound",[11]; mild hepatic impairment,25.95 ng·h/mL
same,"AUCinf, GLSM, Unbound",[11]; mild hepatic impairment,27.53 ng·h/mL
same,"Cmax, GLSM, Unbound",[11]; mild hepatic impairment,0.5171 ng/mL
same,"AUC480, GLSM, Unbound",[11]; moderate hepatic impairment,25.84 ng·h/mL
same,"AUCinf, GLSM, Unbound",[11]; moderate hepatic impairment,27.54 ng·h/mL
same,"Cmax, GLSM, Unbound",[11]; moderate hepatic impairment,0.5095 ng/mL
same,"AUC480, GLSM, Unbound",[11]; normal hepatic function,29.62 ng·h/mL
same,"AUCinf, GLSM, Unbound",[11]; normal hepatic function,31.13 ng·h/mL
same,"Cmax, GLSM, Unbound",[11]; normal hepatic function,0.4328 ng/mL
